Measurements: patent US9708308B2, “Factor IXa inhibitors” (Merck Sharp & Dohme Corp., priority 2012, dated 2017)

Target: Factor IXa (Homo sapiens, UniProt P00740)
Experiment: Determination of inhibitory activity against Factor IXa (cleavage of fluorescent peptide substrate)
Assay type: biochemical
Details: cleavage of fluorescent peptide CH3SO2-D-CHG-Gly-Arg-AFC, release of AFC; read-out: FIXa IC50
Source text: • (R)—N-(3-aminobenzo[d]isoxazol-6-yl)-2-hydroxy-2-((R)-4-(1-(6-methoxypyridazin-4-yl)-1H-pyrazol-3-yl)-6,6-dimethyl-3-oxomorpholin-2-yl)acetamide. Determination of Inhibitory Activity Against Factor IXa
Formation of a clot to stem bleeding at a site of blood vessel injury involves the coordinated activity of a group of plasma proteins that initiate and propagate fibrin formation and subsequently protect fibrin from premature degradation. Factor IX is a key component of the plasma system that forms a fibrin clot at a site of vascular injury. The activity of Factor IXa is measured by monitoring the cleavage of the fluorescent peptide, CH3SO2-D-CHG-Gly-Arg-AFC.AcOH (“CHG” is cyclohexyl-glycine and “AFC” is trifluoro aminomethyl coumarin). Factor IXa cleaves the amide bond between Arg and AFC, thereby releasing the AFC fluorophore. The free AFC can be detected with a fluorescence detector at an excitation wavelength of 405 nm and emission wavelength of 510 nm.

Chain of Factor IXa (P00740 227-461 limits assumed): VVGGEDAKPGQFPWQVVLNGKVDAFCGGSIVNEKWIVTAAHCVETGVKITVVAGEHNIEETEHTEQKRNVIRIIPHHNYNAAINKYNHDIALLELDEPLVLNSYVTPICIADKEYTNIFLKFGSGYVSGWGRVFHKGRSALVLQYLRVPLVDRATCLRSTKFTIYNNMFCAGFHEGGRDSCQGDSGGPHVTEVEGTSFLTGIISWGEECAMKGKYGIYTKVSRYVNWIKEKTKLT
Chain of Factor IXa (P00740 47-191 partner limits assumed): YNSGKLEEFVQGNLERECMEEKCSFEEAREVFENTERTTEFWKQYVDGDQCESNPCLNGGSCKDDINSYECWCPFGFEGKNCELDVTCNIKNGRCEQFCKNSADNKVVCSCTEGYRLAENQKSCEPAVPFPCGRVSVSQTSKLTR

| IC50 [nM] | SMILES |
| --- | --- |
| 4.36 | C[C@](O)(C(=O)Nc1ccc2c(N)noc2c1)[C@H]1OCCN(c2ccn(-c3ccnnc3)n2)C1=O [Example 37, (R)—N-(3-aminobenzo[d]isoxazol-6-yl)-2-hydroxy-2-((R)-3-oxo-4-(1-(pyridazin-4-yl)-1H-pyrazol-3-yl)morpholin-2-yl)propanamide] |
| 23.2 | C[C@](O)(C(=O)Nc1ccc2c(N)noc2c1)[C@H]1OCCN(c2ccn(-c3cnnc(N4CCC4)c3)n2)C1=O [Example 38, (R)—N-(3-aminobenzo[d]isoxazol-6-yl)-2-((R)-4-(1-(6-(azetidin-1-yl)pyridazin-4-yl)-1H-pyrazol-3-yl)-3-oxomorpholin-2-yl)-2-hydroxypropanamide] |
| 160 | COc1cc(-n2ccc(N3CCO[C@H]([C@@](C)(O)C(=O)Nc4ccc5c(N)noc5c4)C3=O)n2)cnn1 [Example 39, (R)—N-(3-aminobenzo[d]isoxazol-6-yl)-2-hydroxy-2-((R)-4-(1-(6-methoxypyridazin-4-yl)-1H-pyrazol-3-yl)-3-oxomorpholin-2-yl)propanamide] |
| 3.7 | [2H]C([2H])([2H])Oc1cc(-n2ccc(N3CCO[C@H]([C@@](C)(O)C(=O)Nc4ccc5c(N)noc5c4)C3=O)n2)cnn1 [Example 40, (2R)—N-(3-amino-1,2-benzoxazol-6-yl)-2-hydroxy-2-[(2R)-3-oxo-4-[1-[6-(trideuteriomethoxy)pyridazin-4-yl]pyrazol-3-yl]morpholin-2-yl]propanamide] |
| 57.8 | CC(C)Oc1cc(-n2ccc(N3CCO[C@H]([C@@](C)(O)C(=O)Nc4ccc5c(N)noc5c4)C3=O)n2)cnn1 [Example 41, (R)—N-(3-aminobenzo[d]isoxazol-6-yl)-2-hydroxy-2-((R)-4-(1-(6-isopropoxypyridazin-4-yl)-1H-pyrazol-3-yl)-3-oxomorpholin-2-yl)propanamide] |
| 812 | Cn1ncc(-n2ccc(N3CCO[C@H]([C@@](C)(O)C(=O)Nc4ccc5c(N)noc5c4)C3=O)n2)cc1=O [Example 44, (R)—N-(3-aminobenzo[d]isoxazol-6-yl)-2-hydroxy-2-((R)-4-(1-(1-methyl-6-oxo-1,6-dihydropyridazin-4-yl)-1H-pyrazol-3-yl)-3-oxomorpholin-2-yl)propanamide] |
| 2.6 | C[C@](O)(C(=O)Nc1ccc2c(N)noc2c1)[C@H]1OCCN(c2ccn(-c3cnnc(C#N)c3)n2)C1=O [Example 45, (R)—N-(3-aminobenzo[d]isoxazol-6-yl)-2-((R)-4-(1-(6-cyanopyridazin-4-yl)-1H-pyrazol-3-yl)-3-oxomorpholin-2-yl)-2-hydroxypropanamide] |
| 1.41 | C[C@](O)(C(=O)Nc1ccc2c(N)noc2c1)[C@H]1OCCN(c2ccn(-c3cnnc(C(F)(F)F)c3)n2)C1=O [Example 46, (R)—N-(3-aminobenzo[d]isoxazol-6-yl)-2-hydroxy-2-((R)-3-oxo-4-(1-(6-(trifluoromethyl)pyridazin-4-yl)-1H-pyrazol-3-yl)morpholin-2-yl)propanamide] |
| 6.91 | C[C@](O)(C(=O)Nc1ccc2c(N)noc2c1)[C@H]1OCCN(c2nn(-c3ccnnc3)cc2F)C1=O [Example 47, (R)—N-(3-aminobenzo[d]isoxazol-6-yl)-2-((R)-4-(4-fluoro-1-(pyridazin-4-yl)-1H-pyrazol-3-yl)-3-oxomorpholin-2-yl)-2-hydroxypropanamide] |
| 4.15 | C[C@](O)(C(=O)Nc1ccc2c(N)noc2c1)[C@H]1OCCN(c2nn(-c3cnnc(C#N)c3)cc2F)C1=O [Example 48, (R)—N-(3-aminobenzo[d]isoxazol-6-yl)-2-((R)-4-(1-(6-cyanopyridazin-4-yl)-4-fluoro-1H-pyrazol-3-yl)-3-oxomorpholin-2-yl)-2-hydroxypropanamide] |
| 6.48 | COc1cc(-n2cc(F)c(N3CCO[C@H]([C@@](C)(O)C(=O)Nc4ccc5c(N)noc5c4)C3=O)n2)cnn1 [Example 49, (R)—N-(3-aminobenzo[d]isoxazol-6-yl)-2-((R)-4-(4-fluoro-1-(6-methoxypyridazin-4-yl)-1H-pyrazol-3-yl)-3-oxomorpholin-2-yl)-2-hydroxypropanamide] |
| 1.89 | C[C@](O)(C(=O)Nc1ccc2c(N)noc2c1)[C@H]1OCCN(c2nn(-c3cnnc(C(F)(F)F)c3)cc2F)C1=O [Example 50, (R)—N-(3-aminobenzo[d]isoxazol-6-yl)-2-((R)-4-(4-fluoro-1-(6-(trifluoromethyl)pyridazin-4-yl)-1H-pyrazol-3-yl)-3-oxomorpholin-2-yl)-2-Hydroxypropanamide] |
| 170 | Cc1nccc(-n2ccc(N3CCO[C@H]([C@@](C)(O)C(=O)Nc4ccc5c(N)noc5c4)C3=O)n2)n1 [Example 51, (R)—N-(3-aminobenzo[d]isoxazol-6-yl)-2-hydroxy-2-((R)-4-(1-(2-methylpyrimidin-4-yl)-1H-pyrazol-3-yl)-3-oxomorpholin-2-yl)propanamide] |
| 102 | CN(C)c1nccc(-n2ccc(N3CCO[C@H]([C@@](C)(O)C(=O)Nc4ccc5c(N)noc5c4)C3=O)n2)n1 [Example 52, (R)—N-(3-aminobenzo[d]isoxazol-6-yl)-2-((R)-4-(1-(2-(dimethylamino)pyrimidin-4-yl)-1H-pyrazol-3-yl)-3-oxomorpholin-2-yl)-2-Hydroxypropanamide] |
| 76.7 | C[C@](O)(C(=O)Nc1ccc2c(N)noc2c1)[C@H]1OCCN(c2ccn(-c3ccnc(C(F)(F)F)n3)n2)C1=O [Example 53, (R)—N-(3-aminobenzo[d]isoxazol-6-yl)-2-hydroxy-2-((R)-3-oxo-4-(1-(2-(trifluoromethyl)pyrimidin-4-yl)-1H-pyrazol-3-yl)morpholin-2-yl)propanamide] |
| 145 | C[C@](O)(C(=O)Nc1ccc2c(N)noc2c1)[C@H]1OCCN(c2ccn(-c3ccnc(C#N)n3)n2)C1=O [Example 54, (R)—N-(3-aminobenzo[d]isoxazol-6-yl)-2-((R)-4-(1-(2-cyanopyrimidin-4-yl)-1H-pyrazol-3-yl)-3-oxomorpholin-2-yl)-2-hydroxypropanamide] |
| 24.8 | COc1nccc(-n2ccc(N3CCO[C@H]([C@@](C)(O)C(=O)Nc4ccc5c(N)noc5c4)C3=O)n2)n1 [Example 55, (R)—N-(3-aminobenzo[d]isoxazol-6-yl)-2-hydroxy-2-((R)-4-(1-(2-methoxypyrimidin-4-yl)-1H-pyrazol-3-yl)-3-oxomorpholin-2-yl)propanamide] |
| 84.5 | COc1cc(-n2ccc(N3CCO[C@H]([C@@](C)(O)C(=O)Nc4ccc5c(N)noc5c4)C3=O)n2)ncn1 [Example 56, (R)—N-(3-aminobenzo[d]isoxazol-6-yl)-2-hydroxy-2-((R)-4-(1-(6-methoxypyrimidin-4-yl)-1H-pyrazol-3-yl)-3-oxomorpholin-2-yl)propanamide] |
| 63.7 | C[C@](O)(C(=O)Nc1ccc2c(N)noc2c1)[C@H]1OCCN(c2nn(-c3ccnc(C(F)(F)F)n3)cc2F)C1=O [Example 57, (R)—N-(3-aminobenzo[d]isoxazol-6-yl)-2-((R)-4-(4-fluoro-1-(2-(trifluoromethyl)pyrimidin-4-yl)-1H-pyrazol-3-yl)-3-oxomorpholin-2-yl)-2-hydroxypropanamide] |
| 32 | COc1nccc(-n2cc(F)c(N3CCO[C@H]([C@@](C)(O)C(=O)Nc4ccc5c(N)noc5c4)C3=O)n2)n1 [Example 58, (R)—N-(3-aminobenzo[d]isoxazol-6-yl)-2-((R)-4-(4-fluoro-1-(2-methoxypyrimidin-4-yl)-1H-pyrazol-3-yl)-3-oxomorpholin-2-yl)-2-hydroxypropanamide] |
| 72.8 | Cc1cc(N2CCO[C@H]([C@@](C)(O)C(=O)Nc3ccc4c(N)noc4c3)C2=O)nn1-c1ccnc(C(F)(F)F)n1 [Example 59, (R)—N-(3-aminobenzo[d]isoxazol-6-yl)-2-hydroxy-2-((R)-4-(5-methyl-1-(2-(trifluoromethyl)pyrimidin-4-yl)-1H-pyrazol-3-yl)-3-oxomorpholin-2-yl)propanamide] |
| 93 | C[C@](O)(C(=O)Nc1ccc2c(N)noc2c1)[C@H]1OCCN(c2ccc(-c3ccnc(C#N)c3)o2)C1=O [Example 61, (R)—N-(3-aminobenzo[d]isoxazol-6-yl)-2-((R)-4-(5-(2-cyanopyridin-4-yl)furan-2-yl)-3-oxomorpholin-2-yl)-2-hydroxypropanamide] |
| 43.5 | C[C@](O)(C(=O)Nc1ccc2c(N)noc2c1)[C@H]1OCCN(c2ccc(-c3ccnc(C(F)(F)F)c3)o2)C1=O [Example 62, (R)—N-(3-aminobenzo[d]isoxazol-6-yl)-2-hydroxy-2-((R)-3-oxo-4-(5-(2-(trifluoromethyl)pyridin-4-yl)furan-2-yl)morpholin-2-yl)propanamide] |
| 131 | COc1cc(-c2ccc(N3CCO[C@H]([C@@](C)(O)C(=O)Nc4ccc5c(N)noc5c4)C3=O)o2)ccn1 [Example 63, (R)—N-(3-aminobenzo[d]isoxazol-6-yl)-2-hydroxy-2-((R)-4-(5-(2-methoxypyridin-4-yl)furan-2-yl)-3-oxomorpholin-2-yl)propanamide] |
| 124 | COc1nccc(-c2ccc(N3CCO[C@H]([C@@](C)(O)C(=O)Nc4ccc5c(N)noc5c4)C3=O)o2)n1 [Example 64, (R)—N-(3-aminobenzo[d]isoxazol-6-yl)-2-hydroxy-2-((R)-4-(5-(2-methoxypyrimidin-4-yl)furan-2-yl)-3-oxomorpholin-2-yl)propanamide] |

| SMILES | IC50 [nM] |
| --- | --- |
| C[C@](O)(C(=O)Nc1ccc2c(N)noc2c1)[C@H]1OCCN(c2ccn(-c3cnnc(OC4CCC4)c3)n2)C1=O [Example 43, (R)—N-(3-aminobenzo[d]isoxazol-6-yl)-2-((R)-4-(1-(6-cyclobutoxypyridazin-4-yl)-1H-pyrazol-3-yl)-3-oxomorpholin-2-yl)-2-hydroxypropanamide] | 535 |
